# Patent US20210188856A1, “CRYSTAL FORM OF HYDROCHLORIDE OF PYRAZOLOHETEROARYL DERIVATIVE AND PREPARATION METHOD” (JIANGSU HENGRUI MEDICINE CO., LTD., priority 2018, published 2021)
# “Also recorded” adds a separate entry of the source. Like-named read-outs stand apart in the source and are kept apart here.
# Assays:
# Type in all cases: physicochemical
# [1] = Long-term stability, 25° C., 60% RH, 9 months; conditions: for Purity % 3 months / Purity % 9 months / Purity Initial: 60% RH
# Method: Example 13: Three batches of the crystal form I of the dihydrochloride salt of the compound of formula (I) were subjected to a long-term stability investigation of 9 months under the conditions of 25° C±2° C., 60%RH±5%RH.
# [2] = XRPD of sample taken out during DSC temperature rise
# From the text: According to X-ray powder diffraction detection, the crystal form is crystal form I, and the XRPD pattern thereof is shown in FIG. 1.
# [3] = Log D
# [4] = Influencing factors stability (heating, light illumination, high humidity; spread and uncovered, 20 days)
# Method: Example 6: the crystal form I of the dihydrochloride salt of the compound represented by formula (I) (example 1) was spread and uncovered, and the steadily of the sample was evaluated under heating (40° C., 60° C.), light illumination (4500 Lux), and high humidity (RH 75%, RH 90%) with a period of 20 days.
# (§1) Example 10: the crystal form A (example 7) of the monohydrochloride salt of the compound of formula (I) was spread and uncovered, and the stability of the sample was evaluated under heating (40° C., 60° C.), light illumination (4500 Lux), high humidity (RH 75%, RH 90%) conditions with a period of 20 days.
# as §1, with “Example 11:” for “Example 10:”, “form B” for “form A (example 7)”, “compound represented by” for “compound of”, “(I) (example 8)” for “(I)”
# as §1, with “Example 12:” for “Example 10:”, “form C” for “form A (example 7)”, “compound represented by” for “compound of”, “(I) (example 9)” for “(I)”
# [5] = Solubility in PBS 7.4 and FaSSIF solutions; conditions: thermodynamic from solid
# From the text: The amorphous samples of the compound represented by formula (I) and the crystal form I samples of the dihydrochloride salt of the compound represented by formula (I) obtained in the present disclosure were further evaluated for solubility in PBS 7.4 and FaSSIF solutions.
# [6] = Hygroscopicity by dynamic vapor sorption (DVS); conditions: 25° C.
# Method: DVS is dynamic vapor sorption: Surface Measurement Systems advantage 2 is used, the humidity starts from 50%, the humidity range is 0%-95%, and the step size is 10%. The judgment standard is that the mass change is less than 0.01% within 10000 min, and two cycles are performed. Surface Measurement Systems advantage 2 was used, the experiment was carried out at 25° C. with humidity starting from 50%, the humidity range observed was 0%-95%, the step size was 10%, and the judgment standard was that the mass change was less than 0.01% within 10000 min, and two cycles were performed.
# [7] = light illumination (4500 Lux), 4 days
# [8] = light illumination (4500 Lux), 10 days
# [9] = light illumination (4500 Lux), 20 days
compound,measurement,setting,value
"CCCCOc1nc(N)c2cnn(Cc3ccc(CN4CCCC4)cc3)c2n1.Cl.Cl [crystal form I, 6-butoxy-1-(4-(pyrrolidin-1-ylmethyl)benzyl)-1H-pyrazolo[3,4-d]pyrimidin-4-amine dihydrochloride]","physical and chemical stability, long-term (in words)","[1]; 25° C., 60% RH for 9 months",good
same,Purity % 3 months,"[1]; Batch 1, 25° C., 3 months",99.52%
same,Purity % 3 months,"[1]; Batch 1, 25° C., 3 months as printed, column between 3 and 9 months",99.57%
same,Purity % 9 months,"[1]; Batch 1, 25° C.",99.50%
same,Purity Initial,"[1]; Batch 1, 25° C.",99.57%
same,Purity % 3 months,"[1]; Batch 2, 25° C., 3 months",99.50%
same,Purity % 3 months,"[1]; Batch 2, 25° C., 3 months as printed, column between 3 and 9 months",99.48%
same,Purity % 9 months,"[1]; Batch 2, 25° C.",99.48%
same,Purity Initial,"[1]; Batch 2, 25° C.",99.53%
same,Purity % 3 months,"[1]; Batch 3, 25° C., 3 months",99.38%
same,Purity % 3 months,"[1]; Batch 3, 25° C., 3 months as printed, column between 3 and 9 months",99.33%
same,Purity % 9 months,"[1]; Batch 3, 25° C.",99.40%
same,Purity Initial,"[1]; Batch 3, 25° C.",99.44%
same,crystal form before and after temperature rise (XRPD),[2]; raised to 150° C.,did not change
same,crystal form before and after temperature rise (XRPD),[2]; raised to 175° C.,did not change
same,logD,[3],1.17
same,Maximum single impurity,[4]; 0 day,0.11%
same,Purity,[4]; 0 day,99.47%
same,Total impurities,[4]; 0 day,0.53%
same,Maximum single impurity,"[4]; 40° C., 4 days",0.11%
same,Purity,"[4]; 40° C., 4 days",99.49%
same,Total impurities,"[4]; 40° C., 4 days",0.51%
same,Maximum single impurity,"[4]; 40° C., 10 days",0.12%
same,Purity,"[4]; 40° C., 10 days",99.52%
same,Total impurities,"[4]; 40° C., 10 days",0.48%
same,Maximum single impurity,"[4]; 40° C., 20 days",0.12%
same,Purity,"[4]; 40° C., 20 days",99.46%
same,Total impurities,"[4]; 40° C., 20 days",0.54%
same,Maximum single impurity,"[4]; 60° C., 4 days",0.15%
same,Purity,"[4]; 60° C., 4 days",99.44%
same,Total impurities,"[4]; 60° C., 4 days",0.56%
same,Maximum single impurity,"[4]; 60° C., 10 days",0.11%
same,Purity,"[4]; 60° C., 10 days",99.53%
same,Total impurities,"[4]; 60° C., 10 days",0.47%
same,Maximum single impurity,"[4]; 60° C., 20 days",0.11%
same,Purity,"[4]; 60° C., 20 days",99.42%
same,Total impurities,"[4]; 60° C., 20 days",0.58%
same,Maximum single impurity,"[4]; 75% RH, 4 days",0.15%
same,Purity,"[4]; 75% RH, 4 days",99.38%
same,Total impurities,"[4]; 75% RH, 4 days",0.62%
same,Maximum single impurity,"[4]; 75% RH, 10 days",0.12%
same,Purity,"[4]; 75% RH, 10 days",99.53%
same,Total impurities,"[4]; 75% RH, 10 days",0.47%
same,Maximum single impurity,"[4]; 75% RH, 20 days",0.11%
same,Purity,"[4]; 75% RH, 20 days",99.47%
same,Total impurities,"[4]; 75% RH, 20 days",0.53%
same,Maximum single impurity,"[4]; 90% RH, 4 days",0.11%
same,Purity,"[4]; 90% RH, 4 days",99.46%
same,Total impurities,"[4]; 90% RH, 4 days",0.54%
same,Maximum single impurity,"[4]; 90% RH, 10 days",0.12%
same,Purity,"[4]; 90% RH, 10 days",99.54%
same,Total impurities,"[4]; 90% RH, 10 days",0.46%
same,Maximum single impurity,"[4]; 90% RH, 20 days",0.11%
same,Purity,"[4]; 90% RH, 20 days",99.52%
same,Total impurities,"[4]; 90% RH, 20 days",0.48%
same,Maximum single impurity,[4]; [7],0.14%
same,Purity,[4]; [7],99.45%
same,Total impurities,[4]; [7],0.55%
same,Maximum single impurity,[4]; [8],0.11%
same,Purity,[4]; [8],99.54%
same,Total impurities,[4]; [8],0.46%
same,Maximum single impurity,[4]; [9],0.12%
same,Purity,[4]; [9],99.41%
same,Total impurities,[4]; [9],0.59%
same,stability under the influencing factor conditions (in words),"[4]; light illumination, 40° C., 60° C., 75% RH, 90% RH, 20 days",good
same,solubility,"[5]; FaSSIF solution, fassif, read-out: FasSIF Solubility",1250 µg/mL
same,solubility,"[5]; PBS 7.4, pH 7.4, aqueous buffer, read-out: PBS 7.4 Solubility",50 µg/mL
same,DVS weight change 0.0% RH-95.0% RH,[6]; 0.0% RH-95.0% RH,9.19%
same,DVS weight change 10%RH-90.0%RH,[6]; 10%RH-90.0%RH,6.628%
same,Crystal form before and after DVS (XRPD),"[6]; DVS two cycles, dihydrochloride",did not change; also recorded: has not changed; also recorded: unchanged
same,hygroscopicity (in words),"[6]; DVS, dihydrochloride",slightly hygroscopic; also recorded: (with hygroscopicity)
